Test results reported in patent publication US7202269B2, “GlyT2 modulators” (Janssen Pharmaceutica N.V., priority 2003, dated 2007).

Biological target: T1, human glycine transporter-2 (GlyT2) (Homo sapiens, UniProt Q9Y345)
T1 construct: The entire coding region of the human GlyT2 cDNA was cloned into the mammalian expression vector pClNeo; expressed in transfected cells; host or cells: Cos-7 cells (African green monkey kidney, ATCC), stably transfected, G418-selected; vector pClNeo
T1 sequence (Q9Y345 1-797): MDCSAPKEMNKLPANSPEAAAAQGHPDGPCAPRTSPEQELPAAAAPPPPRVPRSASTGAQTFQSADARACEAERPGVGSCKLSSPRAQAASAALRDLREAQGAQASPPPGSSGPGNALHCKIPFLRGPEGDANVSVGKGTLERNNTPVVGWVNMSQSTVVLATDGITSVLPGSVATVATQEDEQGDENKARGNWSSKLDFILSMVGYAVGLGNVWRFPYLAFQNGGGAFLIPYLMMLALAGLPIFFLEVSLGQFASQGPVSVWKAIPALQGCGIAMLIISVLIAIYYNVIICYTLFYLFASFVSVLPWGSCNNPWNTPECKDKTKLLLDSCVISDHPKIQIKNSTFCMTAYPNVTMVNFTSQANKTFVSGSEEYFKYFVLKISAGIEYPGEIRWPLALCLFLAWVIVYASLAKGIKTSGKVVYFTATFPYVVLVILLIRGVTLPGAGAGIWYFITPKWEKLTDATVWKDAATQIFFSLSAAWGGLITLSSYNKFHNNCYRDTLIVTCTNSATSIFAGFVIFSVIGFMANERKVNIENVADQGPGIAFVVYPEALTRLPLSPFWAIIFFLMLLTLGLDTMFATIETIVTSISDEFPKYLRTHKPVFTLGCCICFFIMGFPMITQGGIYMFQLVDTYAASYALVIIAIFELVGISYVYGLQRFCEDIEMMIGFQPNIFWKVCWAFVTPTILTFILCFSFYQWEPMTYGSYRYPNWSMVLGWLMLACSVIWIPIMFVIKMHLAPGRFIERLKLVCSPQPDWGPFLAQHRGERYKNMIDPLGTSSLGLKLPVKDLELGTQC
Assay: Inhibition of [14C]-glycine uptake in COS-7 cells transfected with human GlyT2
Format: cell-based
Conditions: 2 h at 37° C., Cos-7 cells stably transfected with human GlyT2
Description: GlyT2 antagonist activity of representative compounds of the invention was determined in accordance with the assay described in the Examples and by measuring the ability of compounds to inhibit the uptake of [^14C]-glycine in COS-7 cells transfected with the human glycine transporter-2 (GlyT2). The GlyT2 antagonist activities of these representative compounds are set forth hereinafter in Table 1.
Cos-7 cells (African green monkey, kidney) from American Type Culture Collection were grown in DMEM supplemented with 10% fetal bovine serum. The entire coding region of the human GlyT2 cDNA was cloned into the mammalian expression vector pClNeo, and then stably transfected into Cos-7 cells. Transfection was performed essentially as described by T. W. Lovenberg et al. (Mol. Pharmacol. 1999, 55:1101–1107): Briefly, cells were grown to 70–80% confluence, removed from the plate with trypsin, and pelleted in a clinical centrifuge. The pellet was resuspended in 400 μL complete medium and transferred to an electroporation cuvette with a 0.4 cm gap between the electrodes (Bio-Rad, 165–2088). One microgram of supercoiled GlyT2 cDNA was added to the cells, and the suspension was mixed. The voltage for the electroporation was set at 0.25 kV, and the capacitance was set at 960 μF. After electroporation, the cuvette contents were diluted to 10 mL with complete medium, and 0.5 mL, 1.0 mL, 2.0 mL and remainder (˜6.5 mL) portions were plated onto four 10-cm dishes. The cells were incubated 24 h before adding 600 μg/mL G418. Colonies that survived selection were isolated and tested for GlyT2 expression.
The day before the assay, the GlyT2 expressing cells were plated into 96-well scintillating microplates (Amersham, RPNQ 0160) at a density of approximately 20,000 cells per well. Cells were grown overnight at 37° C. in 5% CO2 and then washed once with 37° C. HEPES buffered saline (HBS: 150 mM NaCl, 20 mM HEPES, 1 mM CaCl2, 10 mM glucose, 5 mM KCl, 1 mM MgCl2; pH 7.4). Eighty microliters of 37° C. HBS was subsequently added to each well. Test solutions of GlyT2 inhibitors were prepared in HBS from DMSO stock solutions, and 5 μL of test solution was added to each test well. Total transport and non-specific background were determined by adding 5 μL HBS or 5 μL 2 M glycine, respectively, to the appropriate control wells. Plates were then left at rt for 5 min before the addition of 20 μL of 100 μM ^14C-glycine (NEN, NEC 048H) to each well for a final concentration of 20 μM. Plates were incubated for 2 h at 37° C. with 5% CO2. After 2 h the reaction mixtures were removed by aspiration, and the plates were washed once with ice-cold HBS. Plates were sealed with TopSeal (Packard, 6005185) and counted on a Packard TopCount® scintillation counter.

Row | Structure (SMILES) | IC50 (Table 2, 20 μM) [µM] | also measured
1 | O=C(Nc1ccc(-c2ccccc2)cc1)NC(C(=O)NCCN1CCCC1)(c1ccccc1)c1ccccc1 [Example 143, 2-(3-Biphenyl-4-yl-ureido)-2,2-diphenyl-N-(2-pyrrolidin-1-yl-ethyl)-acetamide] | 8 | –
2 | O=C(Nc1ccc(S(=O)(=O)c2ccc(Cl)cc2)cc1)N[C@@H](Cc1ccccc1)C(=O)NCCN1CCCC1 [Example 85, (S)-2-{3-[4-(4-Chloro-benzenesulfonyl)-phenyl]-ureido}-3-phenyl-N-(2-pyrrolidin-1-yl-ethyl)-propionamide] | 0.269 | –
3 | CN(C)CCN(C)C(=O)C(Cc1ccccc1)NC(=O)Nc1ccc(-c2ccccc2)cc1 (stereo not shown) [Example 61, 2-(3-Biphenyl-4-yl-ureido)-N-(2-dimethylamino-ethyl)-N-methyl-3-phenyl-propionamide] | 3.5 | –
4 | N#C/N=C(\Nc1ccc(-c2ccccc2)cc1)N[C@H](CC(=O)NCCN1CCCC1)Cc1ccccc1 [Example 53, (S)-3-(N′-Biphenyl-4-yl-N″-cyano-guanidino)-4-phenyl-N-(2-pyrrolidin-1-yl-ethyl)-butyramide] | – | IC50 (Table 1, 20 μM): 0.103 µM
5 | O=C(NCCN1CCCC1)[C@H](Cc1ccccc1)NC(=S)Nc1ccc(Oc2ccc(Cl)cc2)cc1 [Example 9, (S)-2-{3-[4-(4-Chloro-phenoxy)-phenyl]-thioureido}-3-phenyl-N-(2-pyrrolidin-1-yl-ethyl)-propionamide] | – | IC50 (Table 3, 20 μM): 0.032 µM
6 | CC(C)[C@@H](CC(=O)NCCN(C(C)C)C(C)C)NC(=O)Nc1ccc(-c2ccccc2)cc1 [Example 146, (R)-3-(3-Biphenyl-4-yl-ureido)-4-methyl-pentanoic Acid (2-diisopropylamino-ethyl)-amide] | 0.595 | –
7 | O=C(CC[C@H](Cc1ccccc1)NC(=S)Nc1ccc(-c2ccccc2)cc1)NCCN1CCCC1 [Example 31, (R)-4-(3-Biphenyl-4-yl-thioureido)-5-phenyl-pentanoic Acid (2-pyrrolidin-1-yl-ethyl)-amide] | – | IC50 (Table 3, 20 μM): 0.089 µM
8 | O=C(Nc1cccc(Oc2ccccc2)c1)N[C@@H](Cc1ccccc1)C(=O)NCCCN1CCCC1 [Example 122, (S)-2-[3-(3-Phenoxy-phenyl)-ureido]-3-phenyl-N-(3-pyrrolidin-1-yl-propyl)-propionamide] | 0.44 | –
9 | NCCNC(=O)CC[C@H](Cc1ccccc1)NC(=O)Nc1ccc(Oc2ccccc2)cc1 [Example 111, (R)-4-[3-(4-Phenoxy-phenyl)-ureido]-5-phenyl-pentanoic Acid (2-amino-ethyl)-amide] | 0.5 | –
10 | O=C(Nc1ccc(-c2ccccc2)cc1)N[C@@H](Cc1cccnc1)C(=O)NCCCN1CCCC1 [Example 142, (S)-2-(3-Biphenyl-4-yl-ureido)-3-pyridin-3-yl-N-(3-pyrrolidin-1-yl-propyl)-propionamide] | 0.685 | –
11 | NCCCNC(=O)/C=C/[C@H](Cc1ccccc1)NC(=O)Nc1ccc(-c2ccccc2)cc1 [Example 152, (E)-(S)-4-(3-Biphenyl-4-yl-ureido)-5-phenyl-pent-2-enoic Acid (3-amino-propyl)-amide] | 3.16 | –
12 | O=C(Nc1ccc(-c2ccccc2)cc1)N[C@@H](CCCNCCN1CCCC1)Cc1ccccc1 [Example 158, 1-[(S)-1-Benzyl-4-(2-pyrrolidin-1-yl-ethylamino)-butyl]-3-biphenyl-4-yl-urea] | 0.34 | –
13 | O=C(Nc1ccc(Oc2ccccc2)cc1)N[C@H](CNCCN1CCCC1)Cc1ccccc1 [Example 157, 1-[(S)-1-Benzyl-2-(2-pyrrolidin-1-yl-ethylamino)-ethyl]-3-(4-phenoxy-phenyl)-urea] | 0.181 | –
14 | O=C(Nc1ccc(-c2ccccc2)cc1)NC1(C(=O)NCCN2CCCC2)Cc2ccccc2C1 [Example 84, 2-(3-Biphenyl-4-yl-ureido)-indan-2-carboxylic Acid (2-pyrrolidin-1-yl-ethyl)-amide] | 10 | –
15 | O=C(Nc1ccc(Oc2ccccc2)cc1)N[C@@H](Cc1cscn1)C(=O)NCCN1CCCC1 [Example 74, (S)-2-[3-(4-Phenoxy-phenyl)-ureido]-N-(2-pyrrolidin-1-yl-ethyl)-3-thiazol-4-yl-propionamide] | 1.06 | –
16 | NCCNC(=O)[C@H](Cc1ccccc1)NC(=O)Nc1ccc(Oc2ccccc2)cc1 [Example 98, (S)-N-(2-Amino-ethyl)-2-[3-(4-phenoxy-phenyl)-ureido]-3-phenyl-propionamide] | 0.398 | –
17 | N#C/N=C(\Nc1ccc(-c2ccccc2)cc1)N[C@@H](Cc1ccccc1)C(=O)NCCCN1CCCC1 [Example 1, (S)-2-(N′-Biphenyl-4-yl-N″-cyano-guanidino)-3-phenyl-N-(3-pyrrolidin-1-yl-propyl)-propionamide] | – | IC50 (Table 1, 20 μM): 0.011 µM

The next lines start with results.

Row | IC50 (Table 2, 20 μM) [µM] | Structure (SMILES) | also measured
18 | 0.048 | CCN(CC)CCNC(=O)/C=C/[C@H](Cc1ccccc1)NC(=O)Nc1ccc(-c2ccccc2)cc1 [Example 19, (E)-(S)-4-(3-Biphenyl-4-yl-ureido)-5-phenyl-pent-2-enoic Acid (2-diethylamino-ethyl)-amide] | –
19 | 0.052 | CC(C)NCCNC(=O)/C=C/[C@H](Cc1ccccc1)NC(=O)Nc1ccc(-c2ccccc2)cc1 [Example 21, (E)-(S)-4-(3-Biphenyl-4-yl-ureido)-5-phenyl-pent-2-enoic Acid (2-isopropylamino-ethyl)-amide] | –
20 | 0.018 | CC(C)N(CCNC(=O)[C@H](Cc1ccccc1)NC(=O)Nc1ccc(Oc2ccc(Cl)cc2)cc1)C(C)C [Example 3, (S)-2-{3-[4-(4-Chloro-phenoxy)-phenyl]-ureido}-N-(2-diisopropylamino-ethyl)-3-phenyl-propionamide] | –
21 | 0.027 | Cc1ccc([C@@H](CC(=O)NCCN2CCCC2)NC(=O)Nc2ccc(-c3ccccc3)cc2)cc1 [Example 6, (R)-3-(3-Biphenyl-4-yl-ureido)-N-(2-pyrrolidin-1-yl-ethyl)-3-p-tolyl-propionamide] | –
22 | 0.018 | O=C(Nc1ccc(-c2ccccc2)cc1)N[C@H](CCCNCCN1CCCC1)Cc1ccccc1 [Example 2, 1-[(R)-1-Benzyl-4-(2-pyrrolidin-1-yl-ethylamino)-butyl]-3-biphenyl-4-yl-urea] | –
23 | 0.039 | O=C(/C=C/[C@H](Cc1ccccc1)NC(=O)Nc1ccc(Oc2ccc(F)cc2)cc1)NCCN1CCCC1 [Example 11, (E)-(S)-4-{3-[4-(4-Fluoro-phenoxy)-phenyl]-ureido}-5-phenyl-pent-2-enoic Acid (2-pyrrolidin-1-yl-ethyl)-amide] | –
24 | 0.058 | O=C(CNc1ccc(Oc2ccc(Cl)cc2)cc1)N[C@@H](Cc1ccccc1)C(=O)NCCN1CCCC1 [Example 27, (S)-2-{2-[4-(4-Chloro-phenoxy)-phenylamino]-acetylamino}-3-phenyl-N-(2-pyrrolidin-1-yl-ethyl)-propionamide] | –
25 | 0.112 | O=C(/C=C/[C@H](Cc1ccccc1)NC(=O)Nc1ccc(-c2ccccc2)cc1)NCCN1CCCC1 [Example 101, (E)-(S)-4-(3-Biphenyl-4-yl-ureido)-5-phenyl-pent-2-enoic Acid (2-pyrrolidin-1-yl-ethyl)-amide] | –
